Reference: PubChem BioAssay AID1963856 (Molecular Pharmacology Branch, DTP, NCI, 2024)

System: LG0567-F671-PDC KRAS tumor spheroid viability
Experiment: Anticancer human tumor LG0567-F671-PDC patient-derived lung adenocarcinoma cell line growth inhibition [KRAS2]
Conditions: spheroids with HUVEC and MSC; for IC50: curve of first compound; for viability, T/C: stronger effect = lower value
Outline: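 Combination screen of spheroid viability in tumor-cell co-cultures with endothelial (HUVEC) and mesenchymal stem cell stroma. Each agent was tested in half-log dilutions, topping at clinical Cmax or at 10 microM without a known Cmax.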

[1] = second compound 0.0316 µM, first compound 0.01 µM
[2] = second compound 0.0316 µM, first compound 0.0316 µM
[3] = second compound 0.0316 µM, first compound 0.1 µM
[4] = second compound 0.1 µM, first compound 0.01 µM
[5] = second compound 0.1 µM, first compound 0.0316 µM
[6] = second compound 0.1 µM, first compound 0.1 µM
[7] = second compound 0.316 µM, first compound 0.01 µM
[8] = second compound 0.316 µM, first compound 0.0316 µM
[9] = second compound 0.316 µM, first compound 0.1 µM
[10] = second compound 1 µM, first compound 0.01 µM
[11] = second compound 1 µM, first compound 0.0316 µM
[12] = second compound 1 µM, first compound 0.1 µM
[13] = second compound 3.16 µM, first compound 0.01 µM
[14] = second compound 3.16 µM, first compound 0.0316 µM
[15] = second compound 3.16 µM, first compound 0.1 µM
[16] = second compound 0.0316 µM, first compound 0.316 µM
[17] = second compound 0.0316 µM, first compound 1 µM
[18] = second compound 0.0316 µM, first compound 3.16 µM
[19] = second compound 0.1 µM, first compound 0.316 µM
[20] = second compound 0.1 µM, first compound 1 µM
[21] = second compound 0.1 µM, first compound 3.16 µM
[22] = second compound 0.316 µM, first compound 0.316 µM
[23] = second compound 0.316 µM, first compound 1 µM
[24] = second compound 0.316 µM, first compound 3.16 µM
[25] = second compound 1 µM, first compound 0.316 µM
[26] = second compound 1 µM, first compound 1 µM
[27] = second compound 1 µM, first compound 3.16 µM
[28] = second compound 3.16 µM, first compound 0.316 µM
[29] = second compound 3.16 µM, first compound 1 µM
[30] = second compound 3.16 µM, first compound 3.16 µM
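Also: drug exposure lasted seven days after spheroids formed for three days.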
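For viability, T/C in this document: 100% = DMSO vehicle control viability.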

SMILES: Cn1ncnc1[C@H]1c2n[nH]c(=O)c3cc(F)cc(c23)N[C@@H]1c1ccc(F)cc1 + C=CC(=O)N1CCN(c2nc(OCC3CCCN3C)nc3c2CCN(c2cccc4cccc(C)c24)C3)CC1CC#N
- IC50 (second compound 0.0316 µM): < 0.316 nM
- IC50 (second compound 0.1 µM): < 0.316 nM
- IC50 (second compound 0.316 µM): < 0.316 nM
- IC50 (second compound 1 µM): < 0.316 nM
- IC50 (second compound 3.16 µM): < 0.316 nM
- viability, T/C (second compound 0.0316 µM, first compound 0.000316 µM): 44.2%
- viability, T/C (second compound 0.0316 µM, first compound 0.001 µM): 41.6%
- viability, T/C (second compound 0.0316 µM, first compound 0.00316 µM): 36.3%
- viability, T/C [1]: 35.6%
- viability, T/C [2]: 32%
- viability, T/C [3]: 29.4%
- viability, T/C (second compound 0.1 µM, first compound 0.000316 µM): 34%
- viability, T/C (second compound 0.1 µM, first compound 0.001 µM): 28.7%
- viability, T/C (second compound 0.1 µM, first compound 0.00316 µM): 37.9%
- viability, T/C [4]: 27.4%
- viability, T/C [5]: 27.6%
- viability, T/C [6]: 27.9%
- viability, T/C (second compound 0.316 µM, first compound 0.000316 µM): 34%
- viability, T/C (second compound 0.316 µM, first compound 0.001 µM): 35.5%
- viability, T/C (second compound 0.316 µM, first compound 0.00316 µM): 25.3%
- viability, T/C [7]: 25.8%
- viability, T/C [8]: 29.6%
- viability, T/C [9]: 30.8%
- viability, T/C (second compound 1 µM, first compound 0.000316 µM): 41.2%
- viability, T/C (second compound 1 µM, first compound 0.001 µM): 32.9%
- viability, T/C (second compound 1 µM, first compound 0.00316 µM): 35.3%
- viability, T/C [10]: 26.7%
- viability, T/C [11]: 26.1%
- viability, T/C [12]: 24.9%
- viability, T/C (second compound 3.16 µM, first compound 0.000316 µM): 14.8%
- viability, T/C (second compound 3.16 µM, first compound 0.001 µM): 16.5%
- viability, T/C (second compound 3.16 µM, first compound 0.00316 µM): 15.4%
- viability, T/C [13]: 16.1%
- viability, T/C [14]: 10.8%
- viability, T/C [15]: 9.1%

SMILES: COc1cc2nccc(Oc3ccc(NC(=O)C4(C(=O)Nc5ccc(F)cc5)CC4)cc3)c2cc1OC + C=CC(=O)N1CCN(c2nc(OCC3CCCN3C)nc3c2CCN(c2cccc4cccc(C)c24)C3)CC1CC#N
- IC50 (second compound 0.0316 µM): < 31.6 nM
- IC50 (second compound 0.1 µM): < 31.6 nM
- IC50 (second compound 0.316 µM): < 31.6 nM
- IC50 (second compound 1 µM): < 31.6 nM
- IC50 (second compound 3.16 µM): < 31.6 nM
- viability, T/C [2]: 27%
- viability, T/C [3]: 35.9%
- viability, T/C [16]: 23.9%
- viability, T/C [17]: 20.4%
- viability, T/C [18]: 17.8%
- viability, T/C (second compound 0.0316 µM, first compound 10 µM): 52.5%
- viability, T/C [5]: 23.5%
- viability, T/C [6]: 22.9%
- viability, T/C [19]: 26.6%
- viability, T/C [20]: 18.4%
- viability, T/C [21]: 10.2%
- viability, T/C (second compound 0.1 µM, first compound 10 µM): 45.3%
- viability, T/C [8]: 25.2%
- viability, T/C [9]: 24.8%
- viability, T/C [22]: 28.4%
- viability, T/C [23]: 17.2%
- viability, T/C [24]: 10.2%
- viability, T/C (second compound 0.316 µM, first compound 10 µM): 41.3%
- viability, T/C [11]: 30.9%
- viability, T/C [12]: 27.6%
- viability, T/C [25]: 23.7%
- viability, T/C [26]: 20.9%
- viability, T/C [27]: 13.3%
- viability, T/C (second compound 1 µM, first compound 10 µM): 33%
- viability, T/C [14]: 13.2%
- viability, T/C [15]: 18.7%
- viability, T/C [28]: 11.4%
- viability, T/C [29]: 17.6%
- viability, T/C [30]: 1.46%
- viability, T/C (second compound 3.16 µM, first compound 10 µM): 1.76%

SMILES: CC(=O)OC12COC1CC(O)C1(C)C(=O)C(O)C3=C(C)C(OC(=O)C(O)C(NC(=O)OC(C)(C)C)c4ccccc4)CC(O)(C(OC(=O)c4ccccc4)C21)C3(C)C (stereo not given) + C=CC(=O)N1CCN(c2nc(OCC3CCCN3C)nc3c2CCN(c2cccc4cccc(C)c24)C3)CC1CC#N
- IC50 (second compound 0.0316 µM): < 10 nM
- IC50 (second compound 0.1 µM): < 10 nM
- IC50 (second compound 0.316 µM): < 10 nM
- IC50 (second compound 1 µM): < 10 nM
- IC50 (second compound 3.16 µM): < 10 nM
- viability, T/C [1]: 18.9%
- viability, T/C [2]: 16.2%
- viability, T/C [3]: 18.9%
- viability, T/C [16]: 21.9%
- viability, T/C [17]: 22.9%
- viability, T/C [18]: 19.9%
- viability, T/C [4]: 14.5%
- viability, T/C [5]: 13.2%
- viability, T/C [6]: 16.1%
- viability, T/C [19]: 16.5%
- viability, T/C [20]: 19.4%
- viability, T/C [21]: 15.8%
- viability, T/C [7]: 15.8%
- viability, T/C [8]: 13.9%
- viability, T/C [9]: 15.7%
- viability, T/C [22]: 13.8%
- viability, T/C [23]: 16.9%
- viability, T/C [24]: 14.7%
- viability, T/C [10]: 16.6%
- viability, T/C [11]: 15.4%
- viability, T/C [12]: 15.9%
- viability, T/C [25]: 15.3%
- viability, T/C [26]: 16.8%
- viability, T/C [27]: 14.4%
- viability, T/C [13]: 40.1%
- viability, T/C [14]: 37.1%
- viability, T/C [15]: 25.7%
- viability, T/C [28]: 36.4%
- viability, T/C [29]: 33.6%
- viability, T/C [30]: 36.6%
